Values joined by “and” are separate entries in the source; they are usually repeats but may differ in a detail not shown here. Equal entries are not always repeated. Each block holds one compound with its values, some of them ahead of it. Where a SMILES comes first, the peptide text is derived from it. [ ]: non-standard residue; d: D form. dNMeI = CC[C@@H](C)[C@@H](NC)C(=O)O; NMeF = CN[C@@H](Cc1ccccc1)C(=O)O; dNMeF = CN[C@H](Cc1ccccc1)C(=O)O; NMeL = CN[C@@H](CC(C)C)C(=O)O; dNMeL = CN[C@H](CC(C)C)C(=O)O; dNMeA = CN[C@H](C)C(=O)O
Tests used:
[1] = PAMPA, PAMPA_Papp_Avg (apparent permeability)
[2] = Pharmacokinetics of D10.1 after PO, SQ and IV dosing in mice
[3] = PO 12.2 mg/kg, individual mice, 12.2 mg/kg
[4] = female, Balb/C, mouse, plasma, po, 12.2 mg/kg
[5] = female, Balb/C, mouse, plasma, sc, 12.2 mg/kg

Papp [1]: 0.628 ×10⁻⁶ cm/s
SMILES: CC[C@H](C)[C@@H]1NC(=O)[C@H](Cc2ccccc2)N(C)C(=O)[C@H]2CCCN2C(=O)[C@@H](CC(C)C)N(C)C(=O)[C@@H](Cc2ccccc2)NC(=O)[C@H](C(C)C)NC(=O)[C@H](CC(C)C)NC(=O)[C@H]2CCCN2C(=O)[C@H](CC(C)C)NC(=O)[C@@H]2CCCN2C1=O [Design D10.50, LVf*lp*FIPLp] (cyclo(IPL[dP]LV[dF][dNMeL][dP][NMeF]))

Papp [1]: 0.421 ×10⁻⁶ cm/s
SMILES: CC[C@H](C)[C@@H]1NC(=O)[C@@H](CC(C)C)NC(=O)[C@@H]2CCCN2C(=O)[C@@H]2CCCN2C(=O)[C@@H](CC(C)C)NC(=O)[C@@H]2CCCN2C(=O)[C@H]2CCCN2C(=O)[C@@H](C(C)C)NC(=O)[C@@H](C)N(C)C1=O [Design D9.14, PlI*avpPlP] (cyclo([dL]PP[dL]I[dNMeA][dV][dP]P))

Papp [1]: 1.57 ×10⁻⁶ cm/s
SMILES: CSCC[C@@H]1NC(=O)[C@@H](C)N(C)C(=O)[C@@H]2CCCN2C(=O)[C@@H](CC(C)C)NC(=O)[C@H](CC(C)C)N(C)C(=O)[C@H]2CCCN2C(=O)[C@H](CC(C)C)NC(=O)[C@@H](CC(C)C)NC(=O)[C@@H](C)NC1=O [Design D9.28, lLp*LlP*aMa] (cyclo(L[dP][NMeL][dL]P[dNMeA]M[dA][dL]))

Papp [1]: 1.84 ×10⁻⁶ cm/s
SMILES: CC[C@@H](C)[C@H]1NC(=O)[C@H]([C@@H](C)CC)NC(=O)[C@H](Cc2ccccc2)N(C)C(=O)[C@H]2CCCN2C(=O)[C@@H]([C@H](C)CC)NC(=O)[C@@H]([C@H](C)CC)N(C)C(=O)[C@H](CC(C)C)NC(=O)[C@H]2CCCN2C(=O)[C@@H]2CCCN2C(=O)[C@H](C(C)C)NC(=O)[C@H]2CCCN2C1=O [Design D11.4, VPpL*iip*FIip] (cyclo(I[dI][dP]VP[dP]L[dNMeI][dI][dP][NMeF]))

Half-life T1/2 ([2]; IV ([…] per Table 12), mean ±): 1.123 ± 0.113 h
Volume of distribution @ steady state VSS ([2]; IV ([…] per Table 12), mean ±): 0.25 ± 0.08 L/kg
Volume of distribution during elimination phase VZ ([2]; IV ([…] per Table 12), mean ±): 0.32 ± 0.07 L/kg
Plasma level ([2]; PO 12.2 mg/kg, 15 min, AVG): 2.58 µM
Plasma level ([2]; PO 12.2 mg/kg, 15 min, individual mice, 12.2 mg/kg): 2.22 µM and 3.26 µM and 2.26 µM
Plasma level ([2]; PO 12.2 mg/kg, 30 min, AVG): 2.92 µM
Plasma level ([2]; PO 12.2 mg/kg, 30 min, individual mice, 12.2 mg/kg): 2.49 µM and 3.64 µM and 2.64 µM
Plasma level ([2]; PO 12.2 mg/kg, 60 min, AVG): 1.78 µM
Plasma level ([2]; PO 12.2 mg/kg, 60 min, individual mice, 12.2 mg/kg): 1.57 µM and 2.14 µM and 1.64 µM
Plasma level ([2]; PO 12.2 mg/kg, 120 min, AVG): 0.72 µM
Plasma level ([2]; PO 12.2 mg/kg, 120 min, individual mice, 12.2 mg/kg): 0.54 µM and 0.8 µM and 0.81 µM
Plasma level ([2]; PO 12.2 mg/kg, 240 min, AVG): 0.16 µM
Plasma level ([2]; PO 12.2 mg/kg, 240 min, individual mice, 12.2 mg/kg): 0.13 µM and 0.18 µM and 0.17 µM
Plasma level ([2]; PO 12.2 mg/kg, 360 min, AVG): 0.07 µM
Plasma level ([2]; PO 12.2 mg/kg, 360 min, individual mice, 12.2 mg/kg): 0 μM and 0.1 μM (2×)
Plasma level ([2]; PO 12.2 mg/kg, 1440 min, AVG): 0 µM
Plasma level ([2]; PO 12.2 mg/kg, 1440 min, individual mice): 0 µM
AUC0-t ([2]; PO 12.2 mg/kg, AVG): 270.4 µmol·min/L
AUC0-∞ ([2]; PO 12.2 mg/kg, AVG): 279.94 µmol·min/L
CI/F ([2]; PO 12.2 mg/kg, AVG): 0.000785 L/min
Cmax ([2]; PO 12.2 mg/kg, AVG): 2920 nM
Tmax ([2]; PO 12.2 mg/kg, individual mice): 0.5 h
Cmax [2, 3]: 2490 nM and 3640 nM and 2640 nM
T1/2 [2, 3]: 0.8313 h and 1.051 h and 1.132 h
Apparent clearance CI/F ([2]; PO (12.2 mg/kg per Table 10), mean): 0.000785 L/min
Half-life T1/2 ([2]; PO (12.2 mg/kg per Table 10), mean ±): 1.005 ± 0.156 h
Oral bioavailability F ([2]; PO, IV dosing as reference, mean ±): 7.48 ± 1.79%
Plasma level ([2]; SQ 12.2 mg/kg, 15 min, AVG): 2.53 µM
Plasma level ([2]; SQ 12.2 mg/kg, 15 min, individual mice): 1.39 µM and 2.44 µM and 3.75 µM
Plasma level ([2]; SQ 12.2 mg/kg, 30 min, AVG): 3.55 µM
Plasma level ([2]; SQ 12.2 mg/kg, 30 min, individual mice): 1.81 µM and 3.69 µM and 5.15 µM
Plasma level ([2]; SQ 12.2 mg/kg, 60 min, AVG): 3.93 µM
Plasma level ([2]; SQ 12.2 mg/kg, 60 min, individual mice): 1.87 µM and 4.88 µM and 5.03 µM
Plasma level ([2]; SQ 12.2 mg/kg, 360 min, AVG): 2.29 µM
Plasma level ([2]; SQ 12.2 mg/kg, 360 min, individual mice): 2.4 µM and 2.19 µM
Plasma level ([2]; SQ 12.2 mg/kg, 1440 min, AVG): 0.01 µM
Plasma level ([2]; SQ 12.2 mg/kg, 1440 min, individual mice): 0 μM (2×) and 0.03 μM
AUC0-t ([2]; SQ 12.2 mg/kg, AVG): 1879.54 µmol·min/L
AUC0-∞ ([2]; SQ 12.2 mg/kg, AVG): 2867.17 µmol·min/L
CI/F ([2]; SQ 12.2 mg/kg, AVG): 7.96e-05 L/min
Cmax ([2]; SQ 12.2 mg/kg, AVG): 4140 nM
T1/2 ([2]; SQ 12.2 mg/kg, AVG): 3.7563 h
Tmax ([2]; SQ 12.2 mg/kg, AVG): 2.5 h
CI/F ([2]; SQ 12.2 mg/kg, individual mice): 5.97e-05 L/min and 9.96e-05 L/min
Cmax ([2]; SQ 12.2 mg/kg, individual mice): 2400 nM and 4880 nM and 5150 nM
T1/2 ([2]; SQ 12.2 mg/kg, individual mice): 3.1823 h and 4.3302 h
level at time molar at 0.25 h [2, 4]: 2580 ± 590 nM
level at time molar at 0.5 h [2, 4]: 2920 ± 630 nM
level at time molar at 1 h [2, 4]: 1780 ± 310 nM
level at time molar at 2 h [2, 4]: 720 ± 150 nM
level at time molar at 4 h [2, 4]: 160 ± 30 nM
level at time molar at 6 h [2, 4]: 70 ± 60 nM
CL/F [2, 5]: 0.0796 mL/min
level at time molar at 0.25 h [2, 5]: 2530 ± 1180 nM
level at time molar at 0.5 h [2, 5]: 3550 ± 1670 nM
level at time molar at 1 h [2, 5]: 3930 ± 1780 nM
level at time molar at 6 h [2, 5]: 2290 ± 150 nM
level at time molar at 24 h [2, 5]: 10 ± 20 nM
bioavailability ([2]; mouse, in vivo): 7.5 to 11%
Cmax ([2]; mouse, in vivo, sc, 12.2 mg/kg): 4140 ± 1510 nM
Tmax ([2]; mouse, in vivo, sc, 12.2 mg/kg): 2.5 h
half-life ([2]; mouse, in vivo, sc, 12.2 mg/kg): 3.76 ± 0.812 h
SMILES: CC[C@H](C)[C@@H]1NC(=O)[C@@H](CC(C)C)NC(=O)[C@H](CC(C)C)N(C)C(=O)[C@H](Cc2ccccc2)NC(=O)CN(C)C(=O)[C@@H]2CCCN2C(=O)[C@H](C(C)C)NC(=O)[C@H](Cc2ccccc2)N(C)C(=O)[C@H]2CCCN2C(=O)[C@H](CC(C)C)NC1=O [Design D10.1, lILp*FVP*GF*L]
AUC0-t [2, 3]: 216.96 µmol·min/L and 327.78 µmol·min/L and 266.45 µmol·min/L
AUC0-∞ [2, 3]: 226.62 µmol·min/L and 337.03 µmol·min/L and 276.18 µmol·min/L
CI/F [2, 3]: 0.000944 L/min and 0.000635 L/min and 0.000775 L/min
AUC0-t ([2]; SQ 12.2 mg/kg, individual mice): 730.93 µmol·min/L and 3578.6 µmol·min/L and 1329.09 µmol·min/L
AUC0-∞ ([2]; SQ 12.2 mg/kg, individual mice): 3585.94 µmol·min/L and 2148.41 µmol·min/L

Papp [1]: 1.02 ×10⁻⁶ cm/s
SMILES: CC[C@@H](C)[C@H]1NC(=O)[C@H](Cc2ccccc2)NC(=O)[C@@H](C)NC(=O)[C@@H](CC(C)C)N(C)C(=O)[C@@H]2CCCN2C(=O)[C@H](C)NC(=O)[C@H]2CCCN2C(=O)[C@@H]2CCCN2C(=O)[C@@H](Cc2ccccc2)NC1=O [Design D9.41, PpAP*laFif] (cyclo(AP[dNMeL][dA]F[dI][dF]P[dP]))

Papp [1]: 0.255 ×10⁻⁶ cm/s
SMILES: CC(C)C[C@@H]1NC(=O)[C@@H](C(C)C)NC(=O)[C@H](CC(C)C)N(C)C(=O)[C@H]2CCCN2C(=O)[C@@H](C(C)C)NC(=O)[C@H]2CCCN2C(=O)[C@@H](C(C)C)NC(=O)[C@@H](Cc2ccccc2)N(C)C(=O)[C@H](CC(C)C)N(C)C1=O (single isomer, unassigned) [Design D9.8.p2, *LvL*L*fvpvp]

Papp [1]: 6 ×10⁻⁶ cm/s
SMILES: CC[C@@H](C)[C@H]1NC(=O)[C@H]2CCCN2C(=O)[C@@H]2CCCN2C(=O)[C@@H]([C@H](C)CC)NC(=O)[C@@H](Cc2ccccc2)NC(=O)[C@@H](Cc2ccccc2)N(C)C(=O)[C@@H]2CCCN2C(=O)[C@@H](C(C)C)NC1=O [Design D8.33, fiPpivP*f] (cyclo(P[dNMeF][dF][dI]P[dP][dI][dV]))

Reference: patent US20260274895A1, “DE NOVO DESIGNED MEMBRANE-TRAVERSING AND ORALLY BIOAVAILABLE MACROCYCLES” (UNIVERSITY OF WASHINGTON, priority 2022, published 2026)
